Measured values as given in patent US20200405697A1, “Antitumor Agent” (Taiho Pharmaceutical Co., Ltd, priority 2017, published 2020).

Assays:
[1] = test system: CFPAC-1 (Human pancreatic cancer cell line); experiment: Effect of combination of sulfonamide compound and other antitumor agent (CellTiter-Glo, combination index): CFPAC-1;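 note: cells exposed to both agents together for 3 days, viability read by luminescence, normalized to vehicle-treated control wells, mean of triplicate wells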
Description: (§1) Each cell line was seeded at 90 L/well to a 96-well culture plate (Thermo Fisher Scientific, Inc.) according to the above tables. The cell-seeded plate was cultured in an incubator set to 37° C. and 500 CO2. On the day following seeding, varying concentrations of the sulfonamide compound and the other antitumor agent were added in combination to the cells. […] The serial dilutions of each compound, or DW was added at 5μL/well to the plate such that each compound and DW, or the sulfonamide compound and the other antitumor agent were combined. […] The plate after the addition was cultured at 37° C. for 3 days under 5% CO2 conditions.
(§2) Three days later, CellTiter-Glo(R) 2.0 Reagent (Promega Corporation) was added at 100 μL/well, and the amount of luminescence was measured using a plate reader EnSpire(R) Multimode Plate Reader (PerkinElmer Co., Ltd.).
(§3) An average value from 3 wells was calculated as to each drug condition from the obtained data, and cell survival rate normalized against control wells supplemented with the vehicle (DW) was calculated. A Fa (fractional inhibition) value was calculated by subtracting the cell survival rate from 1.

[2] = test system: A549 (Human lung cancer cell line); experiment: Effect of combination of sulfonamide compound and other antitumor agent (CellTiter-Glo, combination index): A549
Description: as §1, §2, §3

[3] = test system: MV-4-11 (Human blood cancer cell line); experiment: Effect of combination of sulfonamide compound and other antitumor agent (CellTiter-Glo, combination index): MV-4-11
Description: as §1, §2, §3

[4] = Example Compound 5 1050 nM + Gemcitabine 5.28 nM
[5] = Example Compound 14 2080 nM + Gemcitabine 5.28 nM
[6] = Example Compound 14 3120 nM + Gemcitabine 7.92 nM
[7] = Example Compound 209A 508 nM + Gemcitabine 5.28 nM
[8] = Example Compound 235A 722 nM + Gemcitabine 5.28 nM
[9] = Example Compound 14 4420 nM + Gemcitabine 8.38 nM
[10] = Example Compound 209A 635 nM + Gemcitabine 5.60 nM
[11] = Example Compound 209A 952 nM + Gemcitabine 8.39 nM
[12] = Example Compound 235A 780 nM + Gemcitabine 5.60 nM
[13] = Example Compound 235A 1170 nM + Gemcitabine 8.40 nM
[14] = Example Compound 14 1310 nM + Guadecitabine 326 nM
[15] = Example Compound 14 1970 nM + Guadecitabine 490 nM
[16] = Example Compound 14 2950 nM + Guadecitabine 734 nM
[17] = Example Compound 14 4420 nM + Guadecitabine 1100 nM
[18] = Example Compound 209A 635 nM + Guadecitabine 734 nM
[19] = Example Compound 235A 520 nM + Guadecitabine 469 nM
[20] = Example Compound 235A 780 nM + Guadecitabine 704 nM
[21] = Example Compound 235A 1170 nM + Guadecitabine 1060 nM
[22] = Example Compound 5 164 nM + Guadecitabine 11.8 nM
[23] = Example Compound 5 247 nM + Guadecitabine 17.8 nM
[24] = Example Compound 5 370 nM + Guadecitabine 26.7 nM
[25] = Example Compound 5 555 nM + Guadecitabine 40.1 nM
[26] = Example Compound 5 833 nM + Guadecitabine 60.2 nM
[27] = Example Compound 5 1250 nM + Guadecitabine 90.3 nM
[28] = Example Compound 14 519 nM + Guadecitabine 17.8 nM
[29] = Example Compound 14 778 nM + Guadecitabine 26.7 nM
[30] = Example Compound 14 1170 nM + Guadecitabine 40.2 nM
[31] = Example Compound 14 1750 nM + Guadecitabine 60.1 nM
[32] = Example Compound 14 2630 nM + Guadecitabine 90.3 nM
[33] = Example Compound 209A 96.6 nM + Guadecitabine 17.8 nM
[34] = Example Compound 209A 217 nM + Guadecitabine 40.0 nM
[35] = Example Compound 209A 326 nM + Guadecitabine 60.1 nM
[36] = Example Compound 235A 90.1 nM + Guadecitabine 11.9 nM
[37] = Example Compound 235A 135 nM + Guadecitabine 17.8 nM
[38] = Example Compound 235A 304 nM + Guadecitabine 40.1 nM
[39] = Example Compound 235A 456 nM + Guadecitabine 60.1 nM
[40] = Example Compound 235A 684 nM + Guadecitabine […]
[41] = Example Compound 5 466 nM + SCH900776 253 nM
[42] = Example Compound 5 700 nM + SCH900776 379 nM
[43] = Example Compound 14 925 nM + SCH900776 253 nM
[44] = Example Compound 14 1390 nM + SCH900776 380 nM
[45] = Example Compound 14 2080 nM + SCH900776 569 nM
[46] = Example Compound 209A 226 nM + SCH900776 253 nM
[47] = Example Compound 209A 508 nM + SCH900776 568 nM
[48] = Example Compound 235A 321 nM + SCH900776 253 nM
[49] = Example Compound 235A 481 nM + SCH900776 379 nM
[50] = Example Compound 235A 722 nM + SCH900776 569 nM
[51] = Example Compound 14 874 nM + SCH900776 909 nM
[52] = Example Compound 14 1310 nM + SCH900776 1360 nM
[53] = Example Compound 14 1970 nM + SCH900776 2050 nM
[54] = Example Compound 14 2950 nM + SCH900776 3070 nM
[55] = Example Compound 209A 188 nM + SCH900776 909 nM
[56] = Example Compound 209A 282 nM + SCH900776 1360 nM
[57] = Example Compound 209A 635 nM + SCH900776 3070 nM
[58] = Example Compound 235A 231 nM + SCH900776 909 nM
[59] = Example Compound 235A 346 nM + SCH900776 1360 nM
[60] = Example Compound 235A 520 nM + SCH900776 2050 nM
[61] = Example Compound 235A 780 nM + SCH900776 3070 nM
[62] = Example Compound 235A 1170 nM + SCH900776 4610 nM

Nc1ccn([C@@H]2O[C@H](CO)[C@@H](O)C2(F)F)c(=O)n1 [Gemcitabine, gemcitabine]
CI value [1, 4]: 0.788 | Fa value [1, 4]: 0.6974 | CI value [1, 5]: 0.756 | Fa value [1, 5]: 0.6749 | CI value [1, 6]: 0.752 | Fa value [1, 6]: 0.7790 | CI value [1, 7]: 0.736 | Fa value [1, 7]: 0.6998 | CI value [1, 8]: 0.722 | Fa value [1, 8]: 0.6762 | CI value [2, 9]: 0.752 | Fa value [2, 9]: 0.8565 | CI value [2, 10]: 0.792 | Fa value [2, 10]: 0.7031 | CI value [2, 11]: 0.791 | Fa value [2, 11]: 0.8749 | CI value [2, 12]: 0.844 | Fa value [2, 12]: 0.6511 | CI value [2, 13]: 0.714 | Fa value [2, 13]: 0.8624

Nc1ncn([C@H]2C[C@H](OP(=O)(O)OC[C@H]3O[C@@H](n4cnc5c(=O)[nH]c(N)nc54)C[C@@H]3O)[C@@H](CO)O2)c(=O)n1 [Guadecitabine, guadecitabine]
CI value [2, 14]: 0.561 | Fa value [2, 14]: 0.2913 | CI value [2, 15]: 0.503 | Fa value [2, 15]: 0.4560 | CI value [2, 16]: 0.582 | Fa value [2, 16]: 0.5553 | CI value [2, 17]: 0.620 | Fa value [2, 17]: 0.6875 | CI value [2, 18]: 0.522 | Fa value [2, 18]: 0.6179 | CI value [2, 19]: 0.568 | Fa value [2, 19]: 0.2878 | CI value [2, 20]: 0.583 | Fa value [2, 20]: 0.4237 | CI value [2, 21]: 0.670 | Fa value [2, 21]: 0.5377 | CI value [3, 22]: 0.640 | Fa value [3, 22]: 0.2498 | CI value [3, 23]: 0.683 | Fa value [3, 23]: 0.3527 | CI value [3, 24]: 0.727 | Fa value [3, 24]: 0.4905 | CI value [3, 25]: 0.690 | Fa value [3, 25]: 0.7205 | CI value [3, 26]: 0.673 | Fa value [3, 26]: 0.9023 | CI value [3, 27]: 0.557 | Fa value [3, 27]: 0.9892 | CI value [3, 28]: 0.767 | Fa value [3, 28]: 0.3318 | CI value [3, 29]: 0.844 | Fa value [3, 29]: 0.4449 | CI value [3, 30]: 0.797 | Fa value [3, 30]: 0.6448 | CI value [3, 31]: 0.668 | Fa value [3, 31]: 0.8620 | CI value [3, 32]: 0.545 | Fa value [3, 32]: 0.9686 | CI value [3, 33]: 0.766 | Fa value [3, 33]: 0.4376 | CI value [3, 34]: 0.753 | Fa value [3, 34]: 0.8301 | CI value [3, 35]: 0.631 | Fa value [3, 35]: 0.9675 | CI value [3, 36]: 0.633 | Fa value [3, 36]: 0.2567 | CI value [3, 37]: 0.638 | Fa value [3, 37]: 0.4131 | CI value [3, 38]: 0.689 | Fa value [3, 38]: 0.7974 | CI value [3, 39]: 0.617 | Fa value [3, 39]: 0.9524 | CI value [3, 40]: 0.544 | Fa value [3, 40]: 0.9930

Cn1cc(-c2cnn3c(N)c(Br)c([C@@H]4CCCNC4)nc23)cn1 [SCH900776]
CI value [1, 41]: 0.283 | Fa value [1, 41]: 0.6428 | CI value [1, 42]: 0.283 | Fa value [1, 42]: 0.7803 | CI value [1, 43]: 0.465 | Fa value [1, 43]: 0.4714 | CI value [1, 44]: 0.322 | Fa value [1, 44]: 0.7231 | CI value [1, 45]: 0.409 | Fa value [1, 45]: 0.7671 | CI value [1, 46]: 0.385 | Fa value [1, 46]: 0.5579 | CI value [1, 47]: 0.474 | Fa value [1, 47]: 0.7649 | CI value [1, 48]: 0.474 | Fa value [1, 48]: 0.4978 | CI value [1, 49]: 0.382 | Fa value [1, 49]: 0.7223 | CI value [1, 50]: 0.484 | Fa value [1, 50]: 0.7722 | CI value [2, 51]: 0.194 | Fa value [2, 51]: 0.6512 | CI value [2, 52]: 0.184 | Fa value [2, 52]: 0.7883 | CI value [2, 53]: 0.191 | Fa value [2, 53]: 0.8714 | CI value [2, 54]: 0.271 | Fa value [2, 54]: 0.8814 | CI value [2, 55]: 0.180 | Fa value [2, 55]: 0.6553 | CI value [2, 56]: 0.170 | Fa value [2, 56]: 0.7965 | CI value [2, 57]: 0.273 | Fa value [2, 57]: 0.8744 | CI value [2, 58]: 0.262 | Fa value [2, 58]: 0.6135 | CI value [2, 59]: 0.280 | Fa value [2, 59]: 0.7038 | CI value [2, 60]: 0.275 | Fa value [2, 60]: 0.8035 | CI value [2, 61]: 0.275 | Fa value [2, 61]: 0.8771 | CI value [2, 62]: 0.430 | Fa value [2, 62]: 0.8705
